The text below walks through data of PMC8145641 (Cells, 2021).

In data set [1] the test system is Hs27 (human foreskin fibroblast). The data set is described as follows: Cytotoxicity assay (MTT). Type of data set: cell-based. The conditions noted are these: 24 h treatment.
In data set [2] the test system is T. gondii RH-GFP. Put plainly: microbe, parasite or virus in culture. The class given is cell-based, Toxoplasma gondii. As for the experimental part:
Cell and parasite culture: The Hs27 (human foreskin fibroblast) (ATCC® CRL-1634™) (ATCC, Manassas, VA, USA) were culturing in DMEM (Dulbecco’s modified Eagle’s medium-ATCC® 30-2002™, ATCC) supplemented with 10% fetal bovine serum (fetal bovine serum, ATCC® 30-2020™, ATCC), 100 I.U./mL penicillin and 100 μg/mL streptomycin (penicillin-streptomycin solution ATCC® 30-2300™, ATCC). Cells were trypsinized (Trypsin-EDTA Solution ATCC® 30-2101™, ATCC) twice a week and seeded at a density of 1 × 10^6 per T25 cell culture flask and incubated in a 37 °C and 5% CO2 to achieve a confluent monolayer. The RH strain of Toxoplasma gondii (RH-GFP ATCC® 50940™, ATCC, highly virulent, haplogroup first, expression of green fluorescent protein) was maintained as tachyzoites, in parasite culture medium, which contains DMEM medium with 3% HIFBS (heat-inactivated FBS; 1 h in 56 °C). Infected tissue culture cells were incubated in a 37 °C and 5% CO2.
After 72 h of incubation, the medium was removed and then 1 × 10^5 per well of tachyzoites of the RH strain were added to the cell monolayers, in DMEM without phenol red with 3% HIFBS. One hour later, the compounds and drugs dilutions in the DMEM without phenol red medium were added to the Hs27 cells with T. gondii. Concentration of the compounds below cytotoxic concentration (<CC30), sulfadiazine 0–10,000 μM and trimethoprim, pyrimethamine and atovaquone 0–200 μM. After a subsequent 96 h of incubation, the plates were read with covered lids, and both excitation (475 nm) and emission (509 nm) from the bottom using multimode microplate reader SpectraMax® i3. The results were expressed as mean fluorescent intensity (MFI) and transformed to the percentage of viability compared to untreated cells. Finally, the inhibitory concentrations for 50% inhibition of T. gondii proliferation (IC50) were calculated. All experiments were performed in triplicate.
Graphs and statistical analyses: Statistical analyses and graphs were performed using GraphPad Prism version 9.0.0 for macOS (GraphPad Software, San Diego, CA, USA). […] Additionally, a relationship between cytotoxicity and antiparasitic activity were calculated as the ratio of the 30% cytotoxic concentration (CC30) to the 50% antiparasitic concentration (IC50) and presented as the selectivity index (SI).

In data set [3] the test system is tachyzoites of the RH-GFP strain. The data set is described as follows: Influence of compounds during Toxoplasma growth, Assay A (invasion). Type of data set: cell-based, Toxoplasma gondii. On the procedure:
(§1) Influence of Compounds during Toxoplasma Growth (Assay A and B): Hs27 cells were cultured on Lab-Tek™ 4-well Chamber Slides (Nunc, Thermo Fisher Scientific, Waltham, MA, USA) (5 × 10^4 cells/500 μL per well).
Assay A—after 48 h, the medium was removed and then 5 × 10^5/500 µL/well tachyzoites of the RH-GFP strain were added to the cell monolayers, in parasite culture medium with the selected compounds at IC50 concentration: 2b, 5b, 8b, 11b or 12b, for 3 h. Then, the cells were washed to remove extracellular parasites and parasite culture medium (without any compounds) was added for 24 h.
(§2) In both assays as the controls, Hs27 cells were infected, but not treated. After subsequent 24 h of incubation (Assay A and B), the slides were washed with sterile PBS, fixed with formaldehyde solution (252549, Sigma-Aldrich), 3.7% in PBS for 20 min and stained with DAPI for 10 min (1 mg/mL, ThermoFisher Scientific). Microscopic analysis of 100 cells in turn, comprised of counting the infected cell ratio and tachyzoites per each parasitophorous vacuoles of infected cell, was performed using a fluorescent microscope (Axio Scope.A1, Carl Zeiss, Jena, Germany) at a magnification ×1000. For image processing ZEISS ZEN Microscope Software version 3.1 was used. Three independent experiments on triplicate chamber slides using the same conditions for both assays were performed.

For data set [4] the test system is unchanged. The data set is described as follows: Influence of compounds during Toxoplasma growth, Assay B (intracellular proliferation). Type of data set: cell-based, Toxoplasma gondii. The conditions noted are these: 3 h infection without compound, washed, 24 h with compound at IC50. On the procedure:
as §1
Assay B—after 48 h, the medium was removed and then 5 × 10^5/500 µL/well tachyzoites of the RH-GFP strain were added to the cell monolayers, in parasite culture medium for 3 h.
as §2

Data set [5] has as its system T. gondii RH-GFP. The data set is described as follows: Kinetics of T. gondii growth, Assay 1 (intracellular tachyzoites). Type of data set: cell-based, Toxoplasma gondii. The conditions noted are these: for effect on the kinetics of T. gondii growth: Assay 1 and Assay 2, Figure 12. As for the experimental part: (§3) Kinetics of T. gondii growth: The effect of 12b and drugs on kinetics of T. gondii RH-GFP growth was performed as follows: 1 × 10^4 per well of Hs27 cells were seeded on black, 96-well, tissue culture-treated plates with optical bottoms in DMEM cell culture medium.
Assay 1—After 72 h of incubation, the medium was removed and then 1 × 10^5 per well of tachyzoites of the RH strain were added to the cell monolayers, in DMEM without phenol red with 3% HIFBS. One hour later, the compound 12b and drugs dilutions in the DMEM without phenol red medium were added to the Hs27 cells with T. gondii.
The plates were read with covered lids, and both excitation (475 nm) and emission (509 nm) from the bottom using multimode microplate reader SpectraMax® i3. Additionally, fluorescence measurement was performed every 24 h. The plates were incubated at 37 °C with 5% of CO2. The results were expressed as mean fluorescent intensity (MFI). The initial value for 1 × 10^5 of T. gondii RH-GFP was 37,000 MFI (log 4.57). The lower limit of detection was 1000 MFI (log 3.0). Data presented as a logarithm of mean fluorescence intensity (logMFI) on concentration and time dependent curves. All experiments were performed in triplicate.

Data set [6] concerns T. gondii RH-GFP. The data set is described as follows: Kinetics of T. gondii growth, Assay 2 (pre-incubated extracellular tachyzoites). Type of data set: cell-based, Toxoplasma gondii. The conditions noted are these: 24 h after infection. As for the experimental part: as §3
Assay 2—After 72 h of incubation, the medium was removed and DMEM without phenol red with 3% HIFBS, was added. In the new 96-well, tissue culture-treated plates 2 × 10^5 per well of tachyzoites of the RH strain were added and treated for 3, and 6 h with the compound 12b and drugs (diluted in the DMEM without phenol red medium) at 37 °C. Then tachyzoites were wash out three times in DPBS, resuspended in DMEM without phenol red medium with 3% HIFBS, and finally 1 × 10^5 per well of tachyzoites were added to the Hs27 cells.
The plates were read with covered lids, and both excitation (475 nm) and emission (509 nm) from the bottom using multimode microplate reader SpectraMax® i3. Additionally, fluorescence measurement was performed every 24 h. The plates were incubated at 37 °C with 5% of CO2. The results were expressed as mean fluorescent intensity (MFI). The initial value for 1 × 10^5 of T. gondii RH-GFP was 37,000 MFI (log 4.57). The lower limit of detection was 1000 MFI (log 3.0). Data presented as a logarithm of mean fluorescence intensity (logMFI) on concentration and time dependent curves. […]

In the next data set the test system is T. gondii. The conditions noted are these: values from the earlier paper; ref [25]; cited from earlier work.
Setting [7] is: Toxoplasma gondii, HS27, 96 h; read-out: IC50 (50% inhibition of T. gondii proliferation).
The mark [8] stands for this setting: ratio of CC30 (Hs27) to IC50 (T. gondii); 1b–12b and positive controls.
The mark [9] stands for this setting: compared to non-treated host cells, compound at IC50 concentration, assay not named in abstract.
Where [10] appears, read: compound at IC50 present 3 h during infection, washed, 24 h free medium, vs non-treated.
Setting [11] is: Toxoplasma gondii, HS27, 96 h, read-out: IC50 (50% inhibition of T. gondii proliferation).

In brackets after ≈: the same amount, converted by molar mass. Like-named read-outs stand apart in the source and are kept apart here.

In general, inhibition refers to the share of the control response that was lost under treatment. `Cc1nc[nH]c1-c1nnc(Nc2ccc(I)cc2)s1` [12b]: the “CC30 (cytotoxic concentration causing 30% of cells proliferation inhibition)” value in data set [1] came out at 98.18 µg/mL. Besides, in the data set on T. gondii RH-GFP [2] (setting [7]), the IC50 came to 4.7 µg/mL (≈ 12.3 µM). In addition, the “SI (selectivity index, CC30/IC50)” value with T. gondii RH-GFP [2] (setting [8]) was determined as 20.89. Also, in data set [3] (setting [9]), the “reduction in number of tachyzoites per vacuole” value is given as 93% and the “reduction in the percentage of infected host cells” value is 44%. In data set [3] (setting [10]), the “number of tachyzoites per vacuole (Assay A)” value is reported as “significant reductions” and the “percentage of infected cells (Assay A)” value is “significant reductions”. Moreover, in data set [4], the “number of intravacuolar tachyzoites (Assay B)” value is listed as “significant reduction”, the “percentage of infected cells (Assay B)” value was “still the same” and the “size of parasitophorous vacuole (Assay B)” value is reported as “significant reduction”. Also, the inhibition at 250 µM with T. gondii RH-GFP [5] (Toxoplasma gondii, Assay 1, 250 µM (95.50 µg/mL), first 24 h post-infection, maintained for the next 72 h) was determined as 97%. The “reduction of the number of newly formed parasites in Hs27 host cells” value with T. gondii RH-GFP [6] (3 h pre-incubation of tachyzoites) came to 80%. For the same compound, the “reduction of the number of newly formed parasites in Hs27 host cells” value in the data set with T. gondii RH-GFP [6] (6 h pre-incubation of tachyzoites) turned out to be 89%.

`O=C1C(O)=C([C@H]2CC[C@H](c3ccc(Cl)cc3)CC2)C(=O)c2ccccc21` [Atovaquone (ATO), Atovaquone, reference compound]: the “CC30 (cytotoxic concentration causing 30% of cells proliferation inhibition)” value in data set [1] was 54.26 µg/mL. In the data set with T. gondii RH-GFP [2] (setting [7]), the IC50 is 0.24 µg/mL (≈ 0.654 µM). Also, the “SI (selectivity index, CC30/IC50)” value in the data set with T. gondii RH-GFP [2] (setting [8]) is recorded as 227.56. Besides, the “effect on the kinetics of T. gondii growth” value (“effect on the kinetics” for short) with T. gondii RH-GFP [5] is given as “only moderately slow down the proliferation of tachyzoites”.

As for `CCc1nc(N)nc(N)c1-c1ccc(Cl)cc1` [Pyrimethamine (PYR), Pyrimethamine, reference compound], the “CC30 (cytotoxic concentration causing 30% of cells proliferation inhibition)” value in data set [1] worked out at 45.26 µg/mL. The IC50 with T. gondii RH-GFP [2] (setting [11]) amounted to 2.86 µg/mL (≈ 11.5 µM). In addition, the “SI (selectivity index, CC30/IC50)” value in the data set on T. gondii RH-GFP [2] (setting [8]) amounted to 15.85. Moreover, in the data set on T. gondii RH-GFP [5], the “effect on the kinetics” value is reported as “only moderately slow down the proliferation of tachyzoites”.

Consider `Nc1ccc(S(=O)(=O)Nc2ncccn2)cc1` [Sulfadiazine (SUL), Sulfadiazine, reference compound], for which the “CC30 (cytotoxic concentration causing 30% of cells proliferation inhibition)” value in data set [1] came to 2230.61 µg/mL. Also, the IC50 in the data set on T. gondii RH-GFP [2] (setting [11]) was found to be 1250 µg/mL (≈ 5010 µM). The “SI (selectivity index, CC30/IC50)” value in the data set on T. gondii RH-GFP [2] (setting [8]) was 1.78. Besides, in the data set with T. gondii RH-GFP [5], the “effect on the kinetics” value is on record as “only moderately slow down the proliferation of tachyzoites”. Besides, the “IC50 (50% inhibition of T. gondii proliferation)” value in the data set on T. gondii is on record as 2721.45 µg/mL.

For the compound `COc1cc(Cc2cnc(N)nc2N)cc(OC)c1OC` [Trimethoprim (TRI), Trimethoprim, reference compound], the “CC30 (cytotoxic concentration causing 30% of cells proliferation inhibition)” value in data set [1] was determined as 17.78 µg/mL. In the data set on T. gondii RH-GFP [2] (setting [11]), the IC50 came out at 14.8 µg/mL (≈ 50.9 µM). Also, in the data set with T. gondii RH-GFP [2] (setting [8]), the “SI (selectivity index, CC30/IC50)” value was found to be 1.20. In the data set on T. gondii RH-GFP [5], the “effect on the kinetics” value is “only moderately slow down the proliferation of tachyzoites”. Moreover, the “IC50 (50% inhibition of T. gondii proliferation)” value in the data set with T. gondii is 12.13 µg/mL.
